Assay results published in ChEMBL document CHEMBL3739261, “Synthesis and antibacterial activity evaluation of C-5 side chain modified analogues of FYL-66, a potential agent against methicillin-resistant Staphylococcus aureus” (Medchemcomm, 2015).
Converted amounts (≈) assume the structure as drawn. The source made the active and inactive calls. No cut-off for these calls is given here.

Experiments:
Staphylococcus aureus [1] = assay: Antibacterial activity against methicillin-susceptible Staphylococcus aureus CMCC 2603 incubated for 18 hrs by broth microdilution method; type: functional; settings: CMCC 2603, 18 h
[2] = Tmax in Sprague-Dawley rat blood at 10 mg/kg, iv by HPLC analysis; type: ADME, organism-based
Staphylococcus aureus [3] = assay: Antibacterial activity against methicillin-susceptible Staphylococcus aureus ATCC 29213 incubated for 18 hrs by broth microdilution method; type: functional; settings: ATCC 29213, 18 h
[4] = Oral bioavailability in Sprague-Dawley rat blood at 10 mg/kg by HPLC analysis; type: ADME, organism-based
Staphylococcus aureus [5] = assay: Antibacterial activity against methicillin-susceptible Staphylococcus aureus ATCC 25923 incubated for 18 hrs by broth microdilution method; type: functional; settings: ATCC 25923, 18 h
[6] = Cytotoxicity against HEK293A cells after 48 hrs by MTT assay; type: cell-based; settings: Homo sapiens, HEK293-A
[7] = Octanol/water partition coefficient, log P of the compound by HPLC assay; type: physicochemical
Staphylococcus aureus [8] = assay: Antibacterial activity against methicillin-susceptible Staphylococcus aureus ATCC 6538 incubated for 18 hrs by broth microdilution method; type: functional; settings: ATCC 6538, 18 h
[9] = Tmax in Sprague-Dawley rat blood at 10 mg/kg, po by HPLC analysis; type: ADME, organism-based
[10] = AUC (0 to infinity) in Sprague-Dawley rat blood at 10 mg/kg, iv by HPLC analysis; type: ADME, organism-based; design: dose 10 mg/kg, route intravenous, time infinity
Enterococcus [11] = assay: Antibacterial activity against vancomycin-resistant Enterococcus; type: functional
Pseudomonas aeruginosa = assay: Antibacterial activity against Pseudomonas aeruginosa ATCC 27853 incubated for 18 hrs by broth microdilution method; type: functional; settings: ATCC 27853, 18 h
[12] = AUC (0 to infinity) in Sprague-Dawley rat blood at 10 mg/kg, po by HPLC analysis; type: ADME, organism-based; design: dose 10 mg/kg, route oral, time infinity
Staphylococcus aureus [13] = assay: Antibacterial activity against methicillin-resistant Staphylococcus aureus; type: functional
Streptococcus pneumoniae = assay: Antibacterial activity against Penicillin-resistant Streptococcus pneumoniae; type: functional
Escherichia coli = assay: Antibacterial activity against Escherichia coli ATCC 25922 incubated for 18 hrs by broth microdilution method; type: functional; settings: ATCC 25922, 18 h
Staphylococcus aureus [14] = assay: Antibacterial activity against methicillin-resistant Staphylococcus aureus ATCC 33591 in neutropenic Kunming mouse systemic infection model assessed as survival rate at 20 mg/kg, po administered 1 hr post inoculation measured on day 1 to 2; type: functional; settings: ATCC 33591, po
[15] = Clearance in Sprague-Dawley rat blood at 10 mg/kg, po by HPLC analysis; type: ADME, organism-based
[16] = Cytotoxicity against human L02 cells after 48 hrs by MTT assay; type: cell-based; settings: L02, 48 h
Enterococcus [17] = assay: Antibacterial activity against Enterococcus; type: functional
Staphylococcus aureus [18] = assay: Antibacterial activity against methicillin-resistant Staphylococcus aureus ATCC 33591 incubated for 18 hrs by broth microdilution method; type: functional; settings: ATCC 33591, 18 h
[19] = Half life in Sprague-Dawley rat blood at 10 mg/kg, iv by HPLC analysis; type: ADME, organism-based
[20] = Clearance in Sprague-Dawley rat blood at 10 mg/kg, iv by HPLC analysis; type: ADME, organism-based
[21] = Solubility of compound in distilled water after 24 hrs by HPLC analysis; type: physicochemical
[22] = Half life in Sprague-Dawley rat blood at 10 mg/kg, po by HPLC analysis; type: ADME, organism-based
Staphylococcus aureus [23] = assay: Antibacterial activity against methicillin-resistant Staphylococcus aureus ATCC 43300 incubated for 18 hrs by broth microdilution method; type: functional; settings: ATCC 43300, 18 h
[24] = Cmax in Sprague-Dawley rat blood at 10 mg/kg, po by HPLC analysis; type: ADME, organism-based; design: dose 10 mg/kg, route oral
Staphylococcus aureus [25] = assay: Antibacterial activity against methicillin-resistant Staphylococcus aureus ATCC 33591 in neutropenic Kunming mouse systemic infection model assessed as survival rate at 20 mg/kg, po administered 1 hr post inoculation measured on day 3; type: functional
Staphylococcus aureus [26] = assay: Antibacterial activity against methicillin-resistant Staphylococcus aureus ATCC 33591 in neutropenic Kunming mouse systemic infection model assessed as survival rate at 10 mg/kg, po administered 1 hr post inoculation measured after 1 week; type: functional, organism-based
[27] = Cmax in Sprague-Dawley rat blood at 10 mg/kg, iv by HPLC analysis; type: ADME, organism-based; design: dose 10 mg/kg, route intravenous

CC(=O)NC[C@H]1CN(c2ccc(-n3cc(-c4ccccn4)cn3)c(F)c2)C(=O)O1 [listing 1 of 2 here]
MIC (Staphylococcus aureus [1]): 2 µg/mL (≈ 5.06 µM)
Tmax [2]: 6.6 min
MIC (Staphylococcus aureus [3]): 2 µg/mL (≈ 5.06 µM)
bioavailability [4]: 76.7%
MIC (Staphylococcus aureus [5]): 2 µg/mL (≈ 5.06 µM)
IC50 [6]: 174 µg/mL (≈ 440 µM)
logP [7]: 1.35
MIC (Staphylococcus aureus [8]): 2 µg/mL (≈ 5.06 µM)
Tmax [9]: 11 h
AUC(0-inf) [10]: 205 µg·h/mL
MIC (Enterococcus [11]): 0.25 µg/mL (≈ 0.632 µM)
MIC (Pseudomonas aeruginosa): > 32 µg/mL
AUC(0-inf) [12]: 157 µg·h/mL
MIC (Staphylococcus aureus [13]): 0.25 µg/mL (≈ 0.632 µM)
MIC (Streptococcus pneumoniae): 0.25 µg/mL (≈ 0.632 µM)
MIC (Escherichia coli): > 32 µg/mL
survival at 20 mg/kg (Staphylococcus aureus [14]): 30%
CL/F [15]: 1.5 mL/min/kg
IC50 [16]: 261 µg/mL (≈ 660 µM)
MIC (Enterococcus [17]): 0.25 µg/mL (≈ 0.632 µM)
MIC (Staphylococcus aureus [18]): 2 µg/mL (≈ 5.06 µM)
half-life [19]: 0.88 h
clearance [20]: 0.833 mL/min/kg
solubility at 24 h [21]: 134 µM (≈ 52.8 µg/mL)
half-life [22]: 13.1 h
MIC (Staphylococcus aureus [23]): 2 µg/mL (≈ 5.06 µM)
Cmax [24]: 5770 ng/mL

O=C(NC[C@H]1CN(c2ccc(-n3cc(-c4ccccn4)cn3)c(F)c2)C(=O)O1)C(F)F
MIC (Staphylococcus aureus [1]): 2 µg/mL (≈ 4.64 µM)
Tmax [2]: 6.6 min
MIC (Staphylococcus aureus [3]): 2 µg/mL (≈ 4.64 µM)
bioavailability [4]: 89.6%
MIC (Staphylococcus aureus [5]): 2 µg/mL (≈ 4.64 µM)
IC50 [6]: 167 µg/mL (≈ 387 µM)
logP [7]: 1.9
MIC (Staphylococcus aureus [8]): 2 µg/mL (≈ 4.64 µM)
Tmax [9]: 1.5 h
AUC(0-inf) [10]: 57.6 µg·h/mL
MIC (Pseudomonas aeruginosa): > 32 µg/mL
AUC(0-inf) [12]: 51.6 µg·h/mL
MIC (Escherichia coli): > 32 µg/mL
survival at 20 mg/kg (Staphylococcus aureus [14]): 40%
CL/F [15]: 3.33 mL/min/kg
IC50 [16]: > 400 µg/mL
survival at 20 mg/kg (Staphylococcus aureus [25]; ATCC 33591, po): 30%
MIC (Staphylococcus aureus [18]): 2 µg/mL (≈ 4.64 µM)
half-life [19]: 5.4 h
clearance [20]: 3 mL/min/kg
solubility at 24 h [21]: 29.9 µM (≈ 12.9 µg/mL)
Activity (Staphylococcus aureus [26]): Active
half-life [22]: 8.87 h
MIC (Staphylococcus aureus [23]): 2 µg/mL (≈ 4.64 µM)
Cmax [24]: 4360 ng/mL
Cmax [27]: 15000 ng/mL

CC(=O)NC[C@H]1CN(c2ccc(N3CCOCC3)c(F)c2)C(=O)O1 [LINEZOLID]
IC50 [6]: 215 µg/mL (≈ 637 µM)
MIC (Pseudomonas aeruginosa): > 32 µg/mL
MIC (Escherichia coli): > 32 µg/mL
survival at 20 mg/kg (Staphylococcus aureus [14]): 30%
IC50 [16]: 213 µg/mL (≈ 631 µM)
Activity (Staphylococcus aureus [25]): Active

CC(=O)NC[C@H]1CN(c2ccc(-n3cc(-c4ccccn4)cn3)c(F)c2)C(=O)O1.Cl
MIC (Enterococcus [11]): 0.25 µg/mL
MIC (Staphylococcus aureus [13]): 0.25 µg/mL
MIC (Streptococcus pneumoniae): 0.25 µg/mL
MIC (Enterococcus [17]): 0.25 µg/mL

CC(=O)NC[C@H]1CN(c2ccc(-n3cc(-c4ccccn4)cn3)c(F)c2)C(=O)O1 [listing 2 of 2 here]
Activity (Staphylococcus aureus [25]): Active

COC(=O)CC1CCN(C[C@H]2CN(c3ccc(-n4cc(-c5ccccn5)cn4)c(F)c3)C(=O)O2)CC1
MIC (Staphylococcus aureus [1]): > 32 µg/mL
MIC (Staphylococcus aureus [3]): > 32 µg/mL
MIC (Staphylococcus aureus [5]): > 32 µg/mL
IC50 [6]: 224 µg/mL (≈ 454 µM)
logP [7]: 1.78
MIC (Staphylococcus aureus [8]): > 32 µg/mL
MIC (Pseudomonas aeruginosa): > 32 µg/mL
MIC (Escherichia coli): > 32 µg/mL
IC50 [16]: > 400 µg/mL
MIC (Staphylococcus aureus [18]): > 32 µg/mL
solubility at 24 h [21]: 92.1 µM (≈ 45.5 µg/mL)
MIC (Staphylococcus aureus [23]): > 32 µg/mL

O=C(CF)NC[C@H]1CN(c2ccc(-n3cc(-c4ccccn4)cn3)c(F)c2)C(=O)O1
MIC (Staphylococcus aureus [1]): 4 µg/mL (≈ 9.68 µM)
MIC (Staphylococcus aureus [3]): 4 µg/mL (≈ 9.68 µM)
MIC (Staphylococcus aureus [5]): 4 µg/mL (≈ 9.68 µM)
IC50 [6]: > 400 µg/mL
logP [7]: 1.29
MIC (Staphylococcus aureus [8]): 4 µg/mL (≈ 9.68 µM)
MIC (Pseudomonas aeruginosa): > 32 µg/mL
MIC (Escherichia coli): > 32 µg/mL
IC50 [16]: 106 µg/mL (≈ 256 µM)
MIC (Staphylococcus aureus [18]): 4 µg/mL (≈ 9.68 µM)
solubility at 24 h [21]: 61.8 µM (≈ 25.5 µg/mL)
MIC (Staphylococcus aureus [23]): 4 µg/mL (≈ 9.68 µM)

O=CNC[C@H]1CN(c2ccc(-n3cc(-c4ccccn4)cn3)c(F)c2)C(=O)O1
MIC (Staphylococcus aureus [1]): 8 µg/mL (≈ 21 µM)
MIC (Staphylococcus aureus [3]): 8 µg/mL (≈ 21 µM)
MIC (Staphylococcus aureus [5]): 8 µg/mL (≈ 21 µM)
IC50 [6]: > 400 µg/mL
logP [7]: 1.19
MIC (Staphylococcus aureus [8]): 8 µg/mL (≈ 21 µM)
MIC (Pseudomonas aeruginosa): > 32 µg/mL
MIC (Escherichia coli): > 32 µg/mL
IC50 [16]: > 400 µg/mL
MIC (Staphylococcus aureus [18]): 8 µg/mL (≈ 21 µM)
solubility at 24 h [21]: 217 µM (≈ 82.8 µg/mL)
MIC (Staphylococcus aureus [23]): 8 µg/mL (≈ 21 µM)

O=C1O[C@@H](CN2CCC(c3ccc(F)cc3)CC2)CN1c1ccc(-n2cc(-c3ccccn3)cn2)c(F)c1
MIC (Staphylococcus aureus [1]): > 32 µg/mL
MIC (Staphylococcus aureus [3]): > 32 µg/mL
MIC (Staphylococcus aureus [5]): > 32 µg/mL
IC50 [6]: > 400 µg/mL
logP [7]: 5.78
MIC (Staphylococcus aureus [8]): > 32 µg/mL
MIC (Pseudomonas aeruginosa): > 32 µg/mL
MIC (Escherichia coli): > 32 µg/mL
IC50 [16]: > 400 µg/mL
MIC (Staphylococcus aureus [18]): > 32 µg/mL
solubility at 24 h [21]: ≤ 19.4 µM
MIC (Staphylococcus aureus [23]): > 32 µg/mL

CC(=O)OC[C@H]1CN(c2ccc(-n3cc(-c4ccccn4)cn3)c(F)c2)C(=O)O1
MIC (Staphylococcus aureus [1]): > 32 µg/mL
MIC (Staphylococcus aureus [3]): > 32 µg/mL
MIC (Staphylococcus aureus [5]): > 32 µg/mL
IC50 [6]: > 400 µg/mL
logP [7]: 2.09
MIC (Staphylococcus aureus [8]): > 32 µg/mL
MIC (Pseudomonas aeruginosa): > 32 µg/mL
MIC (Escherichia coli): > 32 µg/mL
IC50 [16]: > 400 µg/mL
MIC (Staphylococcus aureus [18]): > 32 µg/mL
solubility at 24 h [21]: 373 µM (≈ 148 µg/mL)
MIC (Staphylococcus aureus [23]): > 32 µg/mL

O=C1O[C@@H](CNC(=O)C(F)(F)F)CN1c1ccc(-n2cc(-c3ccccn3)cn2)c(F)c1
MIC (Staphylococcus aureus [1]): > 64 µg/mL
MIC (Staphylococcus aureus [3]): > 64 µg/mL
MIC (Staphylococcus aureus [5]): > 64 µg/mL
IC50 [6]: > 400 µg/mL
logP [7]: ≥ 1.78
MIC (Staphylococcus aureus [8]): > 64 µg/mL
MIC (Pseudomonas aeruginosa): > 32 µg/mL
MIC (Escherichia coli): > 32 µg/mL
IC50 [16]: > 400 µg/mL
MIC (Staphylococcus aureus [18]): > 64 µg/mL
solubility at 24 h [21]: 114 µM (≈ 51 µg/mL)
MIC (Staphylococcus aureus [23]): > 64 µg/mL

O=C(OC[C@H]1CN(c2ccc(-n3cc(-c4ccccn4)cn3)c(F)c2)C(=O)O1)c1ccccc1
MIC (Staphylococcus aureus [1]): > 32 µg/mL
MIC (Staphylococcus aureus [3]): > 32 µg/mL
MIC (Staphylococcus aureus [5]): > 32 µg/mL
IC50 [6]: > 400 µg/mL
logP [7]: 4.21
MIC (Staphylococcus aureus [8]): > 32 µg/mL
MIC (Pseudomonas aeruginosa): > 32 µg/mL
MIC (Escherichia coli): > 32 µg/mL
IC50 [16]: > 400 µg/mL
MIC (Staphylococcus aureus [18]): > 32 µg/mL
solubility at 24 h [21]: ≤ 65.4 µM
MIC (Staphylococcus aureus [23]): > 32 µg/mL
